# Like-named read-outs stand apart in the source and are kept apart here.
# Experiments:
# HIV-1 (IIIB) = assay: Antiviral assay in MT-4 cells (HIV MT-4 antiviral assay); type: cell-based; conditions: HIV-1 (IIIB) in MT-4 cells, 5 days incubation
# Procedure: Compounds were tested in a high-throughput 384-well assay format for their ability to inhibit the replication of HIV-1 (IIIB) in MT-4 cells. Compounds were serially diluted (1:3) in DMSO on 384-well polypropylene plates and further diluted 200-fold into complete RPMI media (10% FBS, 1% P/S) using the Biotek Micro Flow and Labcyte ECHO acoustic dispenser. Each plate contained up to 8 test compounds, with negative (No Drug Control) and 5 μM AZT positive controls. MT-4 cells were pre-infected with 10 μL of either RPMI (mock-infected) or a fresh 1:250 dilution of HIV-1 IIIB concentrated virus stock. Infected and uninfected MT-4 cells were further diluted in complete RPMI media and added to each plate using a Micro Flow dispenser. After 5 days incubation in a humidified and temperature controlled incubator (37° C.), Cell Titer Glo (Promega) was added to the assay plates and chemiluminescence read using an Envision plate-reader.
# [1] = Cytotoxicity assay in MT-4 cells; type: cell-based, human; conditions: human, uninfected MT-4 cells, 5 days incubation; read-out: CC50
# Procedure: Each plate contained up to 8 test compounds, with negative (No Drug Control) and 5 μM AZT positive controls. MT-4 cells were pre-infected with 10 μL of either RPMI (mock-infected) or a fresh 1:250 dilution of HIV-1 IIIB concentrated virus stock. Infected and uninfected MT-4 cells were further diluted in complete RPMI media and added to each plate using a Micro Flow dispenser. After 5 days incubation in a humidified and temperature controlled incubator (37° C.), Cell Titer Glo (Promega) was added to the assay plates and chemiluminescence read using an Envision plate-reader. […] Assays were performed as above except uninfected MT-4 cells were added to each well containing test compound. In addition, 10 μM puromycin was added to the last column of each assay plate to assess a base level of cytotoxicity.
# [2] = Human immunodeficiency virus 1, IIIB, MT4, 120 h, read-out: EC50
Structure (SMILES),EC50 (HIV-1 (IIIB); [2]) [nM],CC50 at 5 days [1] [nM],EC50 (HIV-1 (IIIB)) [nM]
"O=C(NCc1c(F)cc(F)cc1F)c1cn2c(c(O)c1=O)C(=O)N1Cc3ccc(Cl)cc3C[C@@H]2C1 (single isomer, unassigned) [Example 127-2]",3.93,13700,–
"O=C(NCc1ccccc1)c1cn2c(c(O)c1=O)C(=O)N1CCCC[C@H]2C1 [Example 167, (7S)—N-benzyl-12-hydroxy-1,11-dioxo-1,4,5,6,7,11-hexahydro-3H-2,7-methanopyrido[1,2-a][1,4]diazonine-10-carboxamide]",3.23,18700,–
"Cc1noc2c1CN1C[C@H](C2)n2cc(C(=O)NCc3c(F)cc(F)cc3F)c(=O)c(O)c2C1=O (single isomer, unassigned) [Example 135-1]",3.36,> 50000,–
"CC1=CC[C@H]2CN(C1)C(=O)c1c(O)c(=O)c(C(=O)NCc3c(F)cc(F)cc3F)cn12 [Example 132-3, (7S)-12-hydroxy-4-methyl-1,11-dioxo-N-(2,4,6-trifluorobenzyl)-1,6,7,11-tetrahydro-3H-2,7-methanopyrido[1,2-a][1,4]diazonine-10-carboxamide]",2.14,24100,–
"O=C(NCc1ccc(F)cc1F)c1cn2c(c(O)c1=O)C(=O)N1CCCC(O)(C(F)F)[C@H]2C1 (stereo partly drawn) [Example 76, (7R)—N-(2,4-difluorobenzyl)-6-(difluoromethyl)-6,12-dihydroxy-1,11-dioxo-1,4,5,6,7,11-hexahydro-3H-2,7-methanopyrido[1,2-a][1,4]diazonine-10-carboxamide]",7.99,23700,–
"O=C(NCc1ccc(F)cc1F)c1cn2c(c(O)c1=O)C(=O)N1CC2CCc2cc(F)ccc21 (single isomer, unassigned) [Example 55-1]",–,13000,> 89.4
"CN1CCN2CC(C1)n1cc(C(=O)NCc3ccc(F)cc3F)c(=O)c(O)c1C2=O (centres unmarked) [Example 33, N-(2,4-difluorobenzyl)-12-hydroxy-5-methyl-1,11-dioxo-1,4,5,6,7,11-hexahydro-3H-2,7-methanopyrido[1,2-a][1,4,7]triazonine-10-carboxamide]",7,> 50000,–
"O=C(NCc1ccc(F)cc1F)c1cn2c(c(O)c1=O)C(=O)N1C[C@@H]2CCc2ccccc21 (single isomer, unassigned) [Example 37-2]",1.2,12900,–
"O=C(NCc1c(F)cc(F)cc1F)c1cn2c(c(O)c1=O)C(=O)N1CCCC(O)C2C1 (centres unmarked) [Example 11, 6,12-dihydroxy-1,11-dioxo-N-(2,4,6-trifluorobenzyl)-1,4,5,6,7,11-hexahydro-3H-2,7-methanopyrido[1,2-a][1,4]diazonine-10-carboxamide]",7.2,> 50000,–
"O=C(NCc1ccc(F)c(Cl)c1F)c1cn2c(c(O)c1=O)C(=O)N1C[C@H]2CCc2ccc(F)cc21 [Example 90-1, (12R)—N-(3-chloro-2,4-difluorobenzyl)-3-fluoro-7-hydroxy-6,8-dioxo-6,8,13,14-tetrahydro-12H-5,12-methanobenzo[e]pyrido[1,2-a][1,4]diazonine-9-carboxamide]",24.1,> 32600,–
"CCC1(F)CCCN2CC1n1cc(C(=O)NCc3ccc(F)cc3F)c(=O)c(O)c1C2=O (centres unmarked) [Example 105, N-(2,4-difluorobenzyl)-6-ethyl-6-fluoro-12-hydroxy-1,11-dioxo-1,4,5,6,7,11-hexahydro-3H-2,7-methanopyrido[1,2-a][1,4]diazonine-10-carboxamide]",1.9,22300,–
"O=C(NCc1ccc(F)cc1F)c1cn2c(c(O)c1=O)C(=O)N1C[C@H]2CCc2ccccc21 (single isomer, unassigned) [Example 37-1]",21.4,10500,–
COc1cccc(CNC(=O)c2cn3c(c(O)c2=O)C(=O)N2CCCC[C@H]3C2)c1F [Example 54],36,1460,–
"CS(=O)(=O)N1CCN2CC(C1)n1cc(C(=O)NCc3ccc(F)cc3F)c(=O)c(O)c1C2=O (centres unmarked) [Example 32, N-(2,4-difluorobenzyl)-12-hydroxy-5-(methylsulfonyl)-1,11-dioxo-1,4,5,6,7,11-hexahydro-3H-2,7-methanopyrido[1,2-a][1,4,7]triazonine-10-carboxamide]",> 100,> 50000,–
"O=C(NCc1c(F)cc(F)cc1F)c1cn2c(c(O)c1=O)C(=O)N1CCc3cc(Cl)ccc3[C@H]2C1 [Example 136-1, (13S)-10-chloro-4-hydroxy-3,5-dioxo-N-(2,4,6-trifluorobenzyl)-3,5,8,13-tetrahydro-7H-6,13-methanobenzo[g]pyrido[1,2-a][1,4]diazonine-2-carboxamide]",39.9,12400,–
"O=C(NCc1ccc(F)cc1F)c1cn2c(c(O)c1=O)C(=O)N1CCNCC2C1 (centres unmarked) [Example 30, N-(2,4-difluorobenzyl)-12-hydroxy-1,11-dioxo-1,4,5,6,7,11-hexahydro-3H-2,7-methanopyrido[1,2-a][1,4,7]triazonine-10-carboxamide]",6.9,1660,–
"O=C(NCc1cccc(Cl)c1F)c1cn2c(c(O)c1=O)C(=O)N1Cc3cc(F)c(F)cc3C[C@H]2C1 [Example 143-2, (6S)—N-(3-chloro-2-fluorobenzyl)-9,10-difluoro-1-hydroxy-2,14-dioxo-2,7,12,14-tetrahydro-6H-6,13-methanobenzo[f]pyrido[1,2-a][1,4]diazonine-3-carboxamide]",12.8,> 50000,–
"Cc1noc2c1C[C@H]1CN(C2)C(=O)c2c(O)c(=O)c(C(=O)NCc3c(F)cc(F)cc3F)cn21 (single isomer, unassigned) [Example 135-2]",4.77,> 50000,–
"O=C(NCc1c(F)cc(F)cc1F)c1cn2c(c(O)c1=O)C(=O)N1CCCC2CC1 (single isomer, unassigned) [Example 24-1, 11-hydroxy-1,10-dioxo-N-(2,4,6-trifluorobenzyl)-1,3,4,5,6,10-hexahydro-2,6-ethanopyrido[1,2-a][1,4]diazocine-9-carboxamide]",10.3,13600,–
"O=C(NCc1ccc(F)c(Cl)c1F)c1cn2c(c(O)c1=O)C(=O)N1Cc3cc(F)c(F)cc3C[C@H]2C1 [Example 139-2, (6S)—N-(3-chloro-2,4-difluorobenzyl)-9,10-difluoro-1-hydroxy-2,14-dioxo-2,7,12,14-tetrahydro-6H-6,13-methanobenzo[f]pyrido[1,2-a][1,4]diazonine-3-carboxamide]",9.11,> 50000,–
"O=C(NCc1c(F)cc(F)cc1F)c1cn2c(c(O)c1=O)C(=O)N1C[C@@H]2CCc2cc(Cl)ccc21 [Example 48-1, (12S)-2-chloro-7-hydroxy-6,8-dioxo-N-(2,4,6-trifluorobenzyl)-6,8,13,14-tetrahydro-12H-5,12-methanobenzo[e]pyrido[1,2-a][1,4]diazonine-9-carboxamide]",> 34,> 13800,–
"O=C(NCc1ccc(F)cc1F)c1cn2c(c(O)c1=O)C(=O)N1CCc3cc(Cl)ccc3[C@H]2C1 [Example 140-1, (13S)-10-chloro-N-(2,4-difluorobenzyl)-4-hydroxy-3,5-dioxo-3,5,8,13-tetrahydro-7H-6,13-methanobenzo[g]pyrido[1,2-a][1,4]diazonine-2-carboxamide]",24.1,14600,–

# Reference: US12227520B2 (priority 2019, dated 2025)
